Values belong to the compound of their own block, whether it stands above or below them.
Assays:
Format in all cases: binding
[1] = test system: 32P-3′-labeled EcoRI/PvuII restriction fragment of plasmid pDR1 (sites 5′-TGTCTA-3′, 5′-TGTTTA-3′, 5′-TGTATA-3′, 5′-TGTGTA-3′); experiment: Quantitative DNase I footprint titration on pDR1 restriction fragment
Description: FIG. 4 illustrates the equilibrium association constants Ka[M^−1] for Polyamide Oligomers A-C, N, Q, and P. The reported association constants are the average values obtained from three DNase I footprint titration experiments, with the standard deviation for each data set indicated in the experiments. Assays were carried out at 22° C. at pH 7.0 in the presence of 10 mM Tris-HCl, 10 mM KCl, 10 mM MgCl2, and 5 mM CaCl2 with an equilibration time of 12 h. Specificities are give in brackets under the Ka values and calculated as Ka (match)/Ka (mismatch).
To examine whether an imidazo[4,5-b]pyridine unit Ip can replace a five-membered imidazole ring Im within an eight-ring hairpin polyamide regarding DNA binding affinity and specificity, polyamide oligomer A and its related all five-membered ring hairpin oligomer N were evaluated by DNase I footprint titrations under identical conditions. Quantitative DNase I footprint titration experiments (10 mM Tris-HCl, 10 mM KCl, 10 mM MgCl2, 5 mM CaCl2, pH 7.0, 22° C., equilibration time: 12 h) were performed on a ^32P-3′-labeled EcoRI/PvuII restriction fragment of plasmid pDR1 0 (FIG. 2). This DNA fragment contains four 6-base pair binding sites which differ at one position, 5′-TGTCTA-3′,5′-TGTTTA-3′,5′-TGTATA-3′, and 5′-TGTGTA-3′. The latter one was regarded as the possible match site having a G•C base pair under the Ip/Py or Im/Py pair, respectively.
Construction of plasmid DNA. The plasmid pDR1 was constructed by hybridization of the two oligonucleotides 5′-GATCAGGCTGTC-[…]-GCTGCTGTTTATGGACG-GCTGCTGTATATGGACGG-CTGGGCGA-3′ (SEQ ID NO:1) and 5′-AGCTTCGC-[…]-[…]-3′ (SEQ ID NO:2) followed by ligation into the BamHI/HinDIII restriction fragment of pUC19 using T4 DNA ligase. The resultant plasmid was then used to transform E. coli XL-1 Blue Supercompetent cells. Ampicillin-resistant white colonies were selected from 25 mL Luria-Bertani agar plates containing […] ampicillin, treated with XGAL and IPTG solutions and grown overnight at 37° C. Cells were harvested after overnight growth at 37° C. Large-scale plasmid purification was performed with Qiagen, purification kits. The presence of the desired insert was determined by dideoxy sequencing. DNA concentrations were determined at 260 nm using the relationship 1 OD unit) 50 μg/mL duplex DNA.
Preparation of 3′-End-Labeled DNA Restriction Fragments. The plasmid pDR1 was linearized with EcoRI and PVuII and treated with the Klenow fragment of DNA […], [R-^32P]-dATP, and [R-^32P]-TTP for 3′-end labeling. The labeled 3′-fragment was purified on a 7% nondenaturing polyacrylamide gel (5% cross-linkage) and the desired 284 base pair band isolated after visualization by autoradiography. The DNA was precipitated with 2-propanol, the pellet washed, lyophilized, and resuspended in RNase-free H2O. Chemical sequencing reactions were performed according to published protocols. (Troschütz, R.; Lückel, A. Arch. Pharm., 325, 617-619, 1992.)
DNase I Footprinting. All reactions were carried out in a volume of 400 μL according to published procedures. Quantitation by storage phosphor autoradiography and determination of equilibrium association constants were as previously described. (Trauger, J. W.; Dervan, P. B. Methods Enzymol., 340, 450-466, 2001.)

[2] = test system: EcoRI/PvuII restriction fragment of plasmid pPWF2 (5′-TGRACA-3′); experiment: Quantitative DNase I footprint titration, R•S position, plasmid pPWF2
Description: (§1) FIG. 9 illustrates the equilibrium association constants Ka[M^−1] and specificities for polyamide oligomers D-F, R, S, and V on plasmids pPWF2 and pCAB1 (R•S position).
(§2) When replacing PyPy, PyIm, and PyHp dimers with BiPy (as in oligomer D), BiIm (as in oligomer E), and BiHp constructs (as in oligomer F), respectively, the question arises whether a) the benzimidazole ring is capable of cooperating with the imidazole ring on the opposite strand of the hairpin polyamide to specifically recognize a C•G base pair according to the binding model and the general pairing rules, and b) whether the steric and electronic peculiarities of the benzimidazole ring disturb the binding ability of the adjacent heterocycle. In order to address this question for the given polyamide design, the recognition behavior of the benzimidazole-containing polyamides was probed in two of the six base pair positions R•S and X•Y of the recognition sequence (5′-TGRACA-3′ and 5′-TGGXCA-3′ for oligomers D and F; 5′-TGRCAA-3′ and 5′-TGGXAA-3′ for oligomer E; FIG. 6) and compared with the DNA-binding ability of the related all five-membered oligomers R, S, and V at the same recognition sequences.
(§3) Evaluation of the DNA recognition properties of the new ligands oligomers D, E, and F at the imidazole/benzimidazole position (referred to as R•S position) should reveal the sequence preference of the benzimidazole ring. The binding properties at the neighboring ring position (referred to as X•Y position) were expected to disclose whether the recognition capabilities of the adjacent internal five-membered ring are disturbed by the benzimidazole moiety. To examine the consequences of the ring replacement for DNA binding in terms of affinity and specificity, the benzimidazole-containing hairpin polyamides oligomers D, E, and F were evaluated by quantitative DNase I footprint titrations and the results compared to those from related oligomers R, S, and V, which were investigated under identical conditions. Quantitative DNase I footprint titration experiments (10 mm Tris-HCl, 10 mm KCl, 10 mm MgCl2, 5 mm CaCl2, pH 7.0, 22° C., equilibration time: 12 h) were performed on ^32P-3′-labeled EcoRI/PvuII restriction fragments of plasmids pPWF2 and pCAB1 (to probe the R•S position, FIG. 7); and pAU2 and pCAB2 (to probe the X•Y position, FIG. 8). Equilibrium association constants (Ka) for the polyamide oligomers at the binding sites of interest were determined as described above in Example 3.

[3] = test system: EcoRI/PvuII restriction fragment of plasmid pAU2 (5′-TGGXCA-3′); experiment: Quantitative DNase I footprint titration, X•Y position, plasmid pAU2; details: match and mismatch sites
Description: FIG. 10 illustrates the equilibrium association constants Ka[M^−1] and specificities for polyamide oligomers D-F, R, S, and V on plasmids pAU2 and pCAB2 (X•Y position). […]
as §3, with “The binding properties at the neighboring ring position (referred to as X•Y position) were expected to disclose whether the recognition capabilities of the adjacent internal five-membered ring are disturbed by the benzimidazole moiety.” left out

[4] = test system: EcoRI/PvuII restriction fragment of plasmid pCAB1 (5′-TGRCAA-3′); experiment: Quantitative DNase I footprint titration, R•S position, plasmid pCAB1
Description: as §1, §2, §3

[5] = test system: EcoRI/PvuII restriction fragment of plasmid pCAB2 (5′-TGGXAA-3′); experiment: Quantitative DNase I footprint titration, X•Y position, plasmid pCAB2
Description: FIG. 10 illustrates the equilibrium association constants Ka[M^−1] and specificities for polyamide oligomers D-F, R, S, and V on plasmids pAU2 and pCAB2 (X•Y position).
When replacing PyPy, PyIm, and PyHp dimers with BiPy (as in oligomer D), BiIm (as in oligomer E), and BiHp constructs (as in oligomer F), respectively, the question arises whether a) the benzimidazole ring is capable of cooperating with the imidazole ring on the opposite strand of the hairpin polyamide to specifically recognize a C•G base pair according to the binding model and the general pairing rules, and b) whether the steric and electronic peculiarities of the benzimidazole ring disturb the binding ability of the adjacent heterocycle. […]
as §3, with “The binding properties at the neighboring ring position (referred to as X•Y position) were expected to disclose whether the recognition capabilities of the adjacent internal five-membered ring are disturbed by the benzimidazole moiety.” left out

[6] = test system: 5′-TGGXCA-3′ (X=A, T, G, C); experiment: DNase I footprint titration, single Hz/Py, Py/Hz, Hz/Bi, Bi/Hz pair position; details: for preference for T•A over A•T: Hz/Py (G), Hz/Bi (I) pair; for preference for A•T over T•A: Py/Hz (J), Bi/Hz (L) pair
Description: FIG. 15 is a table showing the association equilibrium constant Ka[M^−1] for polyamide oligomers G and J. The reported association constants are the average values obtained from three DNase I footprint titration experiments, with the standard deviation given in parenthesis. Assays were carried out at 22° C. at pH 7.0 in the presence of 10 mM Tris-HCl, 10 mM KCl, 10 mM MgCl2, and 5 mM CaCl2 at pH 7.0.
FIG. 19 is a a table showing the association equilibrium constant Ka[M^−1] for polyamide oligomers I and L. The reported association constants are the average values obtained from three DNase I footprint titration experiments, with the standard deviation given in parenthesis. Assays were carried out at 22° C. at pH 7.0 in the presence of 10 mM Tris-HCl, 10 mM KCl, 10 mM MgCl2, and 5 mM CaCl2 at pH 7.0.
For polyamides Im-Im-Hz-Py-γ-Im-Py-Py-Py-β-Dp (oligomer G) and Im-Im-Py-Py-γ-Im-Hz-Py-Py-β-Dp (oligomer J), the DNA-sequence specificity at a single ring-pairing position (bolded in the sequences listed above) was determined by varying a single DNA base pair within the parent-sequence context, 5′-TGGXCA-3′, to all four Watson-Crick base pairs (X=A, T, G, C) and comparing the relative affinities of the resulting complexes (FIG. 14). The variable base-pair position was installed opposite the novel Hz/Py and Py/Hz pairs, designed to target T•A and A•T respectively. Equilibrium association constants (Ka) for polyamide oligomers containing Py/Py, Hp/Py and Py/Hp pairs have been reported and are included for comparison with values presented here (FIG. 15).
The variable base-pair position was installed opposite the novel Hz/Bi and Bi/Hz pairs, designed to target T•A and A•T respectively.
Footprinting Experiments.—Plasmids pDHN1 and pDEH10 were constructed and 5′-radiolabeled as previously described. (Nguyen, D. H. et al., Bioorg. Med. Chem., 9: 7-17, 2001; Melander, C. et al., Chem. Eur. J., 24: 4487-4497, 2000.) DNase I footprint titrations were performed according to standard protocols. (Trauger, J. W. et al., Methods Enzymol., 340: 450-466, 2001.)

binding site preference, affinity and specificity compared with related all five-membered ring oligomer ([1]; B vs Q, C vs P): same binding site preference
SMILES: CNC(=O)c1cc(NC(=O)c2cc(NC(=O)c3cc(NC(=O)c4cc(NC(=O)[C@H](N)CCNC(=O)c5cc(NC(=O)c6ccc7nc(-c8cc(NC(=O)c9nccn9C)cn8C)[nH]c7c6)cn5C)cn4C)cn3C)cn2C)cn1C [C]

match site Ka, R•S position ([4]; 5′-TGRCAA-3′ match site, pH 7.0, 22° C., 12 h): 3.1e+10 M⁻¹
match site affinity compared with related all five-membered oligomer, R•S position ([4]; E vs S): six to seven-fold higher
match site/mismatch site discrimination compared with related oligomer, R•S position ([4]; R=A): comparable
match site/mismatch site discrimination compared with related oligomer, R•S position ([4]; R=T or C): at least ten-fold lower
match site Ka, X•Y position ([5]; 5′-TGGXAA-3′ match site, pH 7.0, 22° C., 12 h): 1.9e+10 M⁻¹
match site affinity compared with related oligomer S, X•Y position ([5]; E vs S): six-fold higher
single base pair mismatch specificities compared with related oligomer S, X•Y position ([5]; E vs S): mildly diminished
SMILES: CNC(=O)c1cc(NC(=O)c2ccc3nc(-c4nc(NC(=O)c5cc(NC(=O)[C@H](N)CCNC(=O)c6cc(NC(=O)c7cc(NC(=O)c8nc(NC(=O)c9nccn9C)cn8C)cn7C)cn6C)cn5C)cn4C)[nH]c3c2)cn1C [E]

selectivity for A,T over G,C [6]: more than 50 fold
preference for T•A over A•T [6]: 10 fold
SMILES: CN(C)CCCNC(=O)CCNC(=O)c1cc(NC(=O)c2cc(NC(=O)c3cc(NC(=O)c4nc(NC(=O)CCCNC(=O)c5cc(NC(=O)c6ccc7nc(-c8nc(NC(=O)c9nccn9C)cn8C)[nH]c7c6O)cn5C)cn4C)cn3C)cn2C)cn1C [G]

More lines, now with the values behind:

SMILES: CNC(=O)c1cc(NC(=O)c2cc(NC(=O)c3cc(NC(=O)c4cc(NC(=O)[C@H](N)CCNC(=O)c5cc(NC(=O)c6ccc7nc(-c8cc(NC(=O)c9nccn9C)cn8C)[nH]c7n6)cn5C)cn4C)cn3C)cn2C)cn1C [A]
specificity of match site versus A•T and T•A sites ([1]; G•C match vs A•T and T•A sites): similar
preference for match site 5′-TGTGTA-3′ versus the C•G site ([1]; G•C match vs C•G site): slight decrease
higher affinity than related all five-membered ring oligomer ([1]; site 5′-TGTGTA-3′): 5 fold
equilibrium association constant Ka ([1]; site 5′-TGTGTA-3′ (G•C), pH 7.0, 22° C., equilibration 12 h): 1.2e+10 M⁻¹

SMILES: CNC(=O)c1cc(NC(=O)c2ccc3nc(-c4cc(NC(=O)c5nc(NC(=O)[C@H](N)CCNC(=O)c6cc(NC(=O)c7cc(NC(=O)c8nc(NC(=O)c9nccn9C)cn8C)cn7C)cn6C)cn5C)cn4C)[nH]c3c2)cn1C [D]
match site Ka, R•S position ([2]; 5′-TGRACA-3′ match site, pH 7.0, 22° C., 12 h): 4.9e+10 M⁻¹
match site affinity compared with related all five-membered oligomer, R•S position ([2]; D vs R, F vs V): comparable
single base pair mismatch specificities compared with related oligomer, R•S position ([2]; D vs R, F vs V): lower by roughly one order of magnitude
binding affinities and specificities compared with related oligomers R, V, X•Y position [3]: same order of magnitude

SMILES: CN(C)CCCNC(=O)CCNC(=O)c1cc(NC(=O)c2cc(NC(=O)c3ccc4nc(-c5nc(NC(=O)CCCNC(=O)c6cc(NC(=O)c7ccc8nc(-c9nc(NC(=O)c%10nccn%10C)cn9C)[nH]c8c7O)cn6C)cn5C)[nH]c4c3)cn2C)cn1C [I]
selectivity for A,T over G,C [6]: 13 fold
preference for T•A over A•T [6]: 2.5 fold

SMILES: CN(C)CCCNC(=O)CCNC(=O)c1cc(NC(=O)c2cc(NC(=O)c3ccc4nc(-c5nc(NC(=O)CCCNC(=O)c6cc(NC(=O)c7cc(NC(=O)c8nc(NC(=O)c9nccn9C)cn8C)cn7C)cn6C)cn5C)[nH]c4c3O)cn2C)cn1C [J]
selectivity for A,T over G,C [6]: more than 30 fold
preference for A•T over T•A [6]: more than 4 fold

SMILES: CN(C)CCCNC(=O)CCNC(=O)c1cc(NC(=O)c2cc(NC(=O)c3ccc4nc(-c5nc(NC(=O)CCCNC(=O)c6cc(NC(=O)c7ccc8nc(-c9nc(NC(=O)c%10nccn%10C)cn9C)[nH]c8c7)cn6C)cn5C)[nH]c4c3O)cn2C)cn1C [L]
selectivity for A,T over G,C [6]: 4.5 fold
Ka (affinity) ([6]; 5′-TGGXCA-3′, 22° C., pH 7.0): high affinity
preference for A•T over T•A [6]: 2.5 fold

Reference: patent US8524899B2, “Alternative heterocycles for DNA recognition” (California Institute of Technology, priority 2003, dated 2013)
